Measurements taken from ChEMBL document CHEMBL1201862, “PubChem BioAssay data set” (2004).
Activity calls are given as the source filed them.

Experiments:
[1] = target: Protein-tyrosine kinase 2-beta (Homo sapiens, UniProt Q14289);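 note: potency of inhibitors of PYK2 kinase phosphorylation of poly-GT substrate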
[2] = HIV-1 Vif–A3G interaction blockers – biochemical, TR-FRET, GST-Vif 1-94, biotin-A3G peptide, dose response retest, primary screen (AID 1117319); assay type: functional;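 note: TR-FRET signal of purified GST-Vif binding a biotinylated A3G peptide; inhibitors lower the FRET signal by blocking Vif and A3G binding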
[3] = target: T1, Mannose-6-phosphate isomerase (Homo sapiens, UniProt P34949); test: MPI inhibition at elevated mannose 6-phosphate – biochemical, fluorescence intensity, high mannose 6-phosphate, primary screen (AID 1220)
T1 sequence (P34949 whole entry): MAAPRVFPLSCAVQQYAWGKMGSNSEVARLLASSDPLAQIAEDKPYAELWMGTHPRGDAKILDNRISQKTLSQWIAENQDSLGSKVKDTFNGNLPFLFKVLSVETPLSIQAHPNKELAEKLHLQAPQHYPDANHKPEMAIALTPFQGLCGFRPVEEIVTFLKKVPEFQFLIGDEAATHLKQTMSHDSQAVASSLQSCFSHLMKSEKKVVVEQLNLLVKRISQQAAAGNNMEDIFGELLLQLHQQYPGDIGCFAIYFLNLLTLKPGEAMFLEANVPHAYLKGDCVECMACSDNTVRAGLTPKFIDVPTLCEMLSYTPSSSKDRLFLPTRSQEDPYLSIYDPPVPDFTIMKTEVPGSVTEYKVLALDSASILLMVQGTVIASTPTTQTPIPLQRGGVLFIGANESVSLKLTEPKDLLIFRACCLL

Large T antigen = Large T antigen (Simian virus 40, UniProt P03070); assay type: functional, Betapolyomavirus macacae;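 note: Confirmatory-stage PubChem screen for compounds that inhibit SV40 T antigen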
Large T antigen, sequence (P03070 whole entry): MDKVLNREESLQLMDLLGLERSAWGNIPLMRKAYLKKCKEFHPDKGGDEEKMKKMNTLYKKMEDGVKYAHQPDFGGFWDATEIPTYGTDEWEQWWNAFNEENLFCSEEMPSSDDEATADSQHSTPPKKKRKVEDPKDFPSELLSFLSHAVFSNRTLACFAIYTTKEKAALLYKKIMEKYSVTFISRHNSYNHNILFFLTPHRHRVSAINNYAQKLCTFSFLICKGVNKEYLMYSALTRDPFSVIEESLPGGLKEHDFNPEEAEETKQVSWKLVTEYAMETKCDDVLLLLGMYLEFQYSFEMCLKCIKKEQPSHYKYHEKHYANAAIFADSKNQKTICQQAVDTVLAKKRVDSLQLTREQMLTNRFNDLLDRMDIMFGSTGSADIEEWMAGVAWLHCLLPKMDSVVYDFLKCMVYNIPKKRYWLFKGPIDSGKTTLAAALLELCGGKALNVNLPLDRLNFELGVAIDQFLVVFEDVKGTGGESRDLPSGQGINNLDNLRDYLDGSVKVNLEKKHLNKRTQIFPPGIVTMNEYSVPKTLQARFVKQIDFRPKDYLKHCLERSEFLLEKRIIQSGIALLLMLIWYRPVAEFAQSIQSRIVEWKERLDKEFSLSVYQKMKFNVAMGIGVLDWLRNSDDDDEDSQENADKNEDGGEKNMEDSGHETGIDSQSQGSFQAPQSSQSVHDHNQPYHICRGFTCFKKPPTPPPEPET

[4] = target: T1, Mannose-6-phosphate isomerase; test: MPI enzyme activity inhibition – biochemical, fluorescence intensity, coupled assay, primary screen (AID 1209)
[5] = viability loss in Vero cells – cytotoxicity control for Vif-APOBEC3G degradation inhibitor project, dose response (AID 1117358); assay type: functional; details: Vero
[6] = target: Transitional endoplasmic reticulum ATPase (Homo sapiens, UniProt P55072); test: Luminescence dose response biochemical high throughput screening assay for inhibitors of the p97 ATPase: synthesized compounds. [Related pubchem assays: 1481, 1517 ]
[7] = target: Transitional endoplasmic reticulum ATPase (Homo sapiens, UniProt P55072, C522A); test: Luminescence counterscreen assay for p97 inhibitors: dose response biochemical high throughput screening assay to identify inhibitors of the C522A mutant p97 ATPase: synthesized compounds. [Related pubchem assays: 1481, 1517, 1551 ]
Transitional endoplasmic reticulum ATPase (Homo sapiens, UniProt P55072, C522A), sequence (P55072 2-806 C522A limits assumed): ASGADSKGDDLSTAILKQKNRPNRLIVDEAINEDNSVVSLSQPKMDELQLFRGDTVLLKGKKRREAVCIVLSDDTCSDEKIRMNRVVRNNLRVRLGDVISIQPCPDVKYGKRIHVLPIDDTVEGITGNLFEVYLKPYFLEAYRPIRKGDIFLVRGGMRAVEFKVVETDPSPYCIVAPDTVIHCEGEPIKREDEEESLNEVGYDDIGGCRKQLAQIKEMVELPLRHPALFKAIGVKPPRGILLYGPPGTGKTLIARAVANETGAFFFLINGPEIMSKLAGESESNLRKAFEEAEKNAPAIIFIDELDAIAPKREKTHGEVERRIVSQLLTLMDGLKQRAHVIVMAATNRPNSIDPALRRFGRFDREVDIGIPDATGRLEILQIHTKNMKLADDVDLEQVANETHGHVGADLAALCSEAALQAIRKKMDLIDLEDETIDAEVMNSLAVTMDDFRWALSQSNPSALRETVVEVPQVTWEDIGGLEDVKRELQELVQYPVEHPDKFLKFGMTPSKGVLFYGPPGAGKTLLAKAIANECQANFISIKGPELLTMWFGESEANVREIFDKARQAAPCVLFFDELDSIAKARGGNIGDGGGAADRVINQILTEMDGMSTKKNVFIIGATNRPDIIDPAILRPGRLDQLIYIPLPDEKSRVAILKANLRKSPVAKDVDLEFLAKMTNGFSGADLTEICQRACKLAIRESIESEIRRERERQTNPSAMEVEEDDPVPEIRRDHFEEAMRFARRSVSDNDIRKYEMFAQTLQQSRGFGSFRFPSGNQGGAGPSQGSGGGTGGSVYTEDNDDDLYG

[8] = target: T2, Neuropeptide Y receptor type 1 (Homo sapiens, UniProt P25929); assay type: functional;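 note: HEK293 cells with a CNG channel challenged with NPY then isoproterenol; potency as antagonist that reverses NPY suppression of cAMP signal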
T2 sequence (P25929 whole entry): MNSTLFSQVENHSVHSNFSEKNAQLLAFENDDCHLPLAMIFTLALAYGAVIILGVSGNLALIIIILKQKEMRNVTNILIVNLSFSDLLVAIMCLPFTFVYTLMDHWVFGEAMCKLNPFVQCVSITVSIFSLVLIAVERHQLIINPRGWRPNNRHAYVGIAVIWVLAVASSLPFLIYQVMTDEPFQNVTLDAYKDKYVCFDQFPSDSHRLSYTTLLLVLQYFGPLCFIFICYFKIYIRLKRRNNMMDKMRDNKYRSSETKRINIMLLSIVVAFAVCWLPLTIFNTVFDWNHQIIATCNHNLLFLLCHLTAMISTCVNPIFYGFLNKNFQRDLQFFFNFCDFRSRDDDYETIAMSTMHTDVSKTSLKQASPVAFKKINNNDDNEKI

[9] = target: T3, Neuropeptide Y receptor type 2 (Homo sapiens, UniProt P49146); assay type: functional, cell-based;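 note: HEK293 cells expressing the receptor and a CNG channel; stimulus was NPY near EC95 followed by isoproterenol to raise cAMP; antagonist potency measured as restoring cAMP signal that NPY suppresses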
T3 sequence (P49146 whole entry): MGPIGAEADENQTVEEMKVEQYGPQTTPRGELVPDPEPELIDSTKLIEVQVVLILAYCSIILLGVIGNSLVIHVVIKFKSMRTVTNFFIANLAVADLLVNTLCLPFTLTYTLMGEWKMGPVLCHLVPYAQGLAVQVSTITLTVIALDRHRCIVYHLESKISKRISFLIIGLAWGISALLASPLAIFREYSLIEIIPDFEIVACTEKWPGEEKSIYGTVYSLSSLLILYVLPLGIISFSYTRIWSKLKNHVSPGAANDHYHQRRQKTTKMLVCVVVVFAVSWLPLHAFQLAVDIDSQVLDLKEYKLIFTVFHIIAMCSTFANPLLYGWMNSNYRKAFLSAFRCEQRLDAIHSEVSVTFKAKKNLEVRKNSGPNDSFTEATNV

[10] = target: Voltage-gated inwardly rectifying potassium channel KCNH2 (Homo sapiens, UniProt Q12809); test: concentration-dependent hERG rescue from blockers – cell-based, thallium flux, dose response (AID 2121); assay type: ADME
Voltage-gated inwardly rectifying potassium channel KCNH2, sequence (Q12809 whole entry): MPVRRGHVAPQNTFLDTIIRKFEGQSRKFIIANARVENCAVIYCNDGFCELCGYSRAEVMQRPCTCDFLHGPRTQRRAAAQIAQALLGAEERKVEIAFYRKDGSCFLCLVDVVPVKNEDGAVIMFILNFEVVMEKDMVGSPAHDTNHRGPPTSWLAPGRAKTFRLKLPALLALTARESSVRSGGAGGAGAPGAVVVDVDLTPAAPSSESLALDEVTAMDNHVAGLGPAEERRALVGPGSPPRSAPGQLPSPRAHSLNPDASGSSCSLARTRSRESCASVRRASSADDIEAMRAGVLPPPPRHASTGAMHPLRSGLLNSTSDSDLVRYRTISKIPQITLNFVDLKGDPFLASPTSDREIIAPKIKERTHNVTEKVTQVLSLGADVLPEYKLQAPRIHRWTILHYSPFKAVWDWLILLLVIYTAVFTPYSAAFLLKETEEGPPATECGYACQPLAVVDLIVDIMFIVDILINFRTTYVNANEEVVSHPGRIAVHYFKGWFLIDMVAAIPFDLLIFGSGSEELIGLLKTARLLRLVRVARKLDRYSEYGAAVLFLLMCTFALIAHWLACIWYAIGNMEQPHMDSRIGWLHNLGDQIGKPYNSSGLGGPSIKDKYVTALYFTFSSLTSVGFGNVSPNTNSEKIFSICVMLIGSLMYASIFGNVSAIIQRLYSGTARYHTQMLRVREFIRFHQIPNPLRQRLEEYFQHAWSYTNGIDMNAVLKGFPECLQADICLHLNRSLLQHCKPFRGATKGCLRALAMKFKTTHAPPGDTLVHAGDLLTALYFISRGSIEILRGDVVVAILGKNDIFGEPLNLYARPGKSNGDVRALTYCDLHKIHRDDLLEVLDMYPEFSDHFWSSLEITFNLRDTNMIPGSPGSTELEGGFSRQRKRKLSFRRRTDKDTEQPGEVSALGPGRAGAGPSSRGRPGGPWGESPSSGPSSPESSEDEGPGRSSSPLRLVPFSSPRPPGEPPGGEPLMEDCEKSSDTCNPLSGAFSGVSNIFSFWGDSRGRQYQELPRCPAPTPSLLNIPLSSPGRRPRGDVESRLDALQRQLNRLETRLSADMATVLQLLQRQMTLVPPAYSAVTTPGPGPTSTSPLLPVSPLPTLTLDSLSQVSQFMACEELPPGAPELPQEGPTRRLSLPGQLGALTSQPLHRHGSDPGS

CHO-K1 = test: Counterscreen for antagonists of the orexin 1 receptor (OX1R; HCRTR1): Homogeneous time resolved fluorescence (HTRF)-based cell-based dose response assay to identify antagonists of the parental CHO-K1 cell line. [Related pubchem assays (depositor defined):AID434989, AID435008, AID463079, AID485270, AID492963, AID492964, AID492965, AID493232, AID504699, AID504701]; assay type: functional; details: Cricetulus griseus;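 note: potency for inhibition of ATP-stimulated IP1 production as antagonists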
[11] = target: T4, Orexin/Hypocretin receptor type 1 (Homo sapiens, UniProt O43613); test: Homogeneous Time Resolved Fluorescence (HTRF)-based cell-based high throughput dose response assay for antagonists of the orexin 1 receptor (OX1R; HCRTR1). [Related pubchem assays (depositor defined):AID434989, AID435008, AID463079, AID485270, AID492963, AID492964, AID492965, AID493232, AID504717, AID504718]; assay type: functional
T4 sequence (O43613 whole entry): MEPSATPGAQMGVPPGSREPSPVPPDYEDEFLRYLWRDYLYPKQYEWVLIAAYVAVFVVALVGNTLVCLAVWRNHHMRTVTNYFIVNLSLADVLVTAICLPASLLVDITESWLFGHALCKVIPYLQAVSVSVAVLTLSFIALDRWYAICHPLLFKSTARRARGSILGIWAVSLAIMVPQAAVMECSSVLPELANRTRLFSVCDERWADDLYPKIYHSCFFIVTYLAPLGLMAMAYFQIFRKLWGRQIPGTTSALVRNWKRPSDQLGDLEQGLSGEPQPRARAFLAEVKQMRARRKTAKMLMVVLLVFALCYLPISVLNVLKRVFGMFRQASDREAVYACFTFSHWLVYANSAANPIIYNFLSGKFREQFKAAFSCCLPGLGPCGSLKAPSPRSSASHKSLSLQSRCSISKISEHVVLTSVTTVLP

Orexin receptor type 2 [12] = target: T5, Orexin receptor type 2 (Homo sapiens, UniProt O43614); test: Counterscreen assay for antagonists of the orexin 1 receptor (OX1R; HCRTR1): Fluorescence-based cell-based dose response assay for antagonists of the orexin 2 receptor (OX2R; HCRTR2), run by assay provider.; assay type: functional
T5 sequence (O43614 whole entry): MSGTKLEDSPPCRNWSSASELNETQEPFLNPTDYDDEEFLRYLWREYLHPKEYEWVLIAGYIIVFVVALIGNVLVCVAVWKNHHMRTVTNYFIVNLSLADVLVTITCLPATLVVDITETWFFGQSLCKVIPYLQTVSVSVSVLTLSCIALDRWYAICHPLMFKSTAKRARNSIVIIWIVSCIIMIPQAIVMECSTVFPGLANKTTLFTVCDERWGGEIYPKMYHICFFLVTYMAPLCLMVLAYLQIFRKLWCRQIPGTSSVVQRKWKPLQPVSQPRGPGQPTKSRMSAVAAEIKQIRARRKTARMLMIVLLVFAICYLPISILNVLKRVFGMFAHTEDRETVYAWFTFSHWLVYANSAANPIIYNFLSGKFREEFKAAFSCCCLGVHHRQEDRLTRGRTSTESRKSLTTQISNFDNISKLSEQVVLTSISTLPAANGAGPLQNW

[13] = Counterscreen for antagonists of the orexin 1 receptor (OX1R; HCRTR1): Fluorescence-based cell-based high throughput dose response assay to identify antagonists of the parental CHO cell line. [Related pubchem assays (depositor defined):AID434989, AID435008, AID463079, AID485270, AID492963, AID492964, AID492965, AID493232, AID504699, AID504701]; assay type: functional
[14] = target: T4, Orexin/Hypocretin receptor type 1; test: Fluorescence-based cell-based high throughput dose response assay for antagonists of the orexin 1 receptor (OX1R; HCRTR1). [Related pubchem assays (depositor defined):AID434989, AID435008, AID463079, AID485270, AID492963, AID492964, AID492965, AID493232, AID504717, AID504718]; assay type: functional
Orexin receptor type 2 [15] = target: T5, Orexin receptor type 2; test: Counterscreen assay for antagonists of the orexin 1 receptor (OX1R; HCRTR1): Homogeneous Time Resolved Fluorescence (HTRF)-based cell-based dose response assay for antagonists of the orexin 2 receptor (OX2R; HCRTR2), run by assay provider.; assay type: functional
[16] = tested on: Streptococcus sp. 'group A'; test: Streptococcus pyogenes SK(-)GAS viability under kanamycin – luminescence, BacTiterGlo, confirmation, counter-screen for streptokinase expression inhibitor project, dose response (AID 1900); assay type: functional, organism-based
[17] = target: T3, Neuropeptide Y receptor type 2; test: IC50 for human NPY-Y2 blockade – cell-based, counter-screen for NPY-Y1 antagonist project, dose response (AID 1278); assay type: functional
Streptokinase A = target: T6, Streptokinase A (Streptococcus pyogenes serotype M1, UniProt P10520); test: viability-normalized secreted streptokinase activity reduction – plasminogen activation absorbance, OD405, dose response (AID 1914); assay type: functional, Streptococcus pyogenes M1 GAS;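 note: secreted streptokinase activity via plasminogen activation per viability signal from cell pellet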
T6 sequence (P10520 whole entry): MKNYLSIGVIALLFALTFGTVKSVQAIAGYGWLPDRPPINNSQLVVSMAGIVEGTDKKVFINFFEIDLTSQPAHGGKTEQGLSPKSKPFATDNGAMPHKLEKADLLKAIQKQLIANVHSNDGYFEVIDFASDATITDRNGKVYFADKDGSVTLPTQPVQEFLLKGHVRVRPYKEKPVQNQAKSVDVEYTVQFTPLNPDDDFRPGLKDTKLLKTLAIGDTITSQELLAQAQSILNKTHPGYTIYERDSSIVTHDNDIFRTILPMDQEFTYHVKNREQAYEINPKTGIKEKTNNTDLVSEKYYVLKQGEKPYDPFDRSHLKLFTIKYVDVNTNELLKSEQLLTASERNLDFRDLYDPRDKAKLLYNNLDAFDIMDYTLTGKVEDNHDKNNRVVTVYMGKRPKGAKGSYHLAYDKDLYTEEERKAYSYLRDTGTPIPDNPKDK

[18] = target: T2, Neuropeptide Y receptor type 1; test: IC50 of human NPY-Y1 blockers – cell-based, dose response (AID 1277); assay type: functional
Streptococcus = test: GAS UMAA2166 growth inhibition – luminescence, BacTiterGlo, counter-screen for streptokinase expression inhibitor project, dose response (AID 1915); assay type: functional, organism-based;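 note: potency for reduction of bacterial viability or growth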
[19] = target: Potassium voltage-gated channel subfamily KQT member 2 (Rattus norvegicus, UniProt O88943, W236L); test: potentiation of rat KCNQ2 current – cell-based, automated electrophysiology, mechanism study for KCNQ2 potentiator project, dose response (AID 2603); assay type: functional
Potassium voltage-gated channel subfamily KQT member 2, sequence (O88943 whole entry W236L): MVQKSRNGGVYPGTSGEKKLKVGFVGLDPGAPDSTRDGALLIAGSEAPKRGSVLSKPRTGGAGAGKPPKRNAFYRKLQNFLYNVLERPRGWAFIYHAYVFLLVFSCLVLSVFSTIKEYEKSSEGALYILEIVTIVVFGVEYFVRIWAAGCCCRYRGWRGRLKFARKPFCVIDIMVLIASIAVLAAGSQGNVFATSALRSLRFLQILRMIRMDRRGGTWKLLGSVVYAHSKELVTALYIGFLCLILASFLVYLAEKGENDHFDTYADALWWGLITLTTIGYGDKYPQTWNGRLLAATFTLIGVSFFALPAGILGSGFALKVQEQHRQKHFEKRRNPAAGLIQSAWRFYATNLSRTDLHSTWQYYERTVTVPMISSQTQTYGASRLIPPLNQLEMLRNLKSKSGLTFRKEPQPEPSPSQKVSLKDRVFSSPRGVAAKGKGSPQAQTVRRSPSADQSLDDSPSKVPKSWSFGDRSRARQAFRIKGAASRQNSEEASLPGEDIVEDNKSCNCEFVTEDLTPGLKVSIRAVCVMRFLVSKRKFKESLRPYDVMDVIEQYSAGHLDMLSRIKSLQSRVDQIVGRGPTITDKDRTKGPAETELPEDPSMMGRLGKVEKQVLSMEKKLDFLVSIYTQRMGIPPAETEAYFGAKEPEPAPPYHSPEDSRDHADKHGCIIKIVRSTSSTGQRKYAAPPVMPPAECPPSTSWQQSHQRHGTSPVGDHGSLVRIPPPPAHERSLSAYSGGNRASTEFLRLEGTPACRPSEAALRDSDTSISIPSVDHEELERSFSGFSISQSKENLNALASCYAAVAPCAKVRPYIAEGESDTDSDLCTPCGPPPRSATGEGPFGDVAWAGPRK

[20] = target: T7, Long-chain-fatty-acid--AMP ligase FadD28 (Mycobacterium tuberculosis, UniProt P9WQ59); test: Fluorescence polarization aasay to screen for inhibitors that compete for the binding of FadD28 to a bisubstrate Measured in Biochemical System Using Plate Reader - 2147-01_Inhibitor_Dose_CherryPick_Activity.; assay type: functional, Mycobacterium tuberculosis H37Rv
T7 sequence (P9WQ59 whole entry): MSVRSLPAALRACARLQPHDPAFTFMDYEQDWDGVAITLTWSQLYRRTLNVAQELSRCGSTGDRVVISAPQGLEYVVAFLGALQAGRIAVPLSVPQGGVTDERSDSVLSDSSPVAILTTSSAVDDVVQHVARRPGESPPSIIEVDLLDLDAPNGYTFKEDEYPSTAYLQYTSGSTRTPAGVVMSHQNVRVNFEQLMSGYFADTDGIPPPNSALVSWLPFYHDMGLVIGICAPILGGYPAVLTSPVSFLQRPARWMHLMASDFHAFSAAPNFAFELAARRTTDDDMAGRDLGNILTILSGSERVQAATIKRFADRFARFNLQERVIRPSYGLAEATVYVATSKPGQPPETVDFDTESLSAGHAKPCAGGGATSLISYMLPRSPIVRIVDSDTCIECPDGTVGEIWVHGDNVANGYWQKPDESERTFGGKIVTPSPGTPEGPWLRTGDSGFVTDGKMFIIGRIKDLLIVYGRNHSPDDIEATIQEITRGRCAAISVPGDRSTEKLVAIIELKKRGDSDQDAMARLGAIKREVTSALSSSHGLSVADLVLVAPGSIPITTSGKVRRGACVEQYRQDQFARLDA

[21] = A High Throughput Confirmatory Assay used to Identify Novel Compounds that Inhibit Mycobacterium Tuberculosis in the absence of Glycerol.; assay type: functional
[22] = microbe, parasite or virus in culture; assay type: functional; details: Mycobacterium tuberculosis

Protein-tyrosine kinase 2-beta, sequence (Q14289 whole entry): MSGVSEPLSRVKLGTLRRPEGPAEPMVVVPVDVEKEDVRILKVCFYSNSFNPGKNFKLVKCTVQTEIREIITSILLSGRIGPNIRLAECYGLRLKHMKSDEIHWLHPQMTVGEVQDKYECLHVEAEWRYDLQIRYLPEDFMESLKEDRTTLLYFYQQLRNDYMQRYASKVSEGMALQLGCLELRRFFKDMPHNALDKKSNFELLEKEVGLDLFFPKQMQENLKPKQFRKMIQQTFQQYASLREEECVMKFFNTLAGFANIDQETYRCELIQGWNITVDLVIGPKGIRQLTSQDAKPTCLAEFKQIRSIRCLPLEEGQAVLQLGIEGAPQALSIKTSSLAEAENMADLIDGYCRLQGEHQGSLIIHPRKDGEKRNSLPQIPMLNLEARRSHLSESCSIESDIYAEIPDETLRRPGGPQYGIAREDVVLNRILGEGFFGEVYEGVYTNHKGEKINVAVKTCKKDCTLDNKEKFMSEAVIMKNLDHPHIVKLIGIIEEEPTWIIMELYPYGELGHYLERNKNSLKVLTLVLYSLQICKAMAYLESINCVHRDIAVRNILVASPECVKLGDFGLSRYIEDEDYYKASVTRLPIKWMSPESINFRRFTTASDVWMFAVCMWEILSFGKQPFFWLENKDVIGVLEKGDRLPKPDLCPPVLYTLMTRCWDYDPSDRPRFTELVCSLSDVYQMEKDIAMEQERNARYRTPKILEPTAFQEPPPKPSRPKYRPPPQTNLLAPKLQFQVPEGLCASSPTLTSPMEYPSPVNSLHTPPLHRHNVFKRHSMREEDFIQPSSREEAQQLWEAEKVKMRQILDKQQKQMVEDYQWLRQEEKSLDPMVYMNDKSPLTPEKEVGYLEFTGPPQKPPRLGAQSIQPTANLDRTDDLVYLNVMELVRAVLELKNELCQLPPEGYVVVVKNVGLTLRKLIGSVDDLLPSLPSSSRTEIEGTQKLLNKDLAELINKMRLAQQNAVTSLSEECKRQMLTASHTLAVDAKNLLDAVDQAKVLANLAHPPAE

Clc1ccc2[nH]cc(-c3nnnn3-c3ccccc3)c2c1
IC50 [1]: > 69.5 µM (not active)

Oc1ccc(/C=N/NP(=S)(c2ccccc2)c2ccccc2)cc1O
IC50 [2]: > 100 µM (active) | IC50 [3]: > 50 µM (not active) | IC50 (Large T antigen): 54.9 µM (active) | IC50 [4]: > 50 µM (not active) | CC50 [5]: > 40 µM (active)

CCOC(=O)/C(C#N)=C/c1c[nH]c2ccc(C#N)cc12
IC50 [6]: > 50 µM (not active) | IC50 [7]: > 50 µM (not active)

CCOc1nc(SCCOc2ccc(Cl)cc2Cl)nc(N(C)C)n1
IC50 [8]: 5.54 µM (active) | IC50 [9]: 5.52 µM (active)

O=C(NC(=S)Nc1nc(-c2ccccc2)cs1)c1ccco1
EC50 [10]: 0.15 µM (active) | IC50 (CHO-K1): > 66.2 µM (inactive) | IC50 [11]: 7.37 µM (active) | IC50 (Orexin receptor type 2 [12]): > 88.8 µM (inactive) | IC50 [13]: > 49.7 µM (inactive) | IC50 [14]: > 49.7 µM (inactive) | IC50 (Orexin receptor type 2 [15]): > 50 µM (inactive)

COc1ccc(C(=O)/C(C#N)=N/Nc2cccc([N+](=O)[O-])c2)cc1
EC50 [16]: 22.8 µM (active) | IC50 [17]: > 35 µM (not active) | EC50 (Streptokinase A): > 150 µM (not active) | IC50 [18]: > 35 µM (not active) | EC50 (Streptococcus): 94.3 µM (active)

CC(C)n1c(O)c(N=Nc2ccc(Cl)c(C(=O)O)c2)c2ccccc21
EC50 [19]: 3.7 µM (active) | AC50 [20]: 35.7 µM (active)

C#CCOc1ccc2c(c1)c(C(C)=O)c(C)n2Cc1ccccc1
IC50 [21]: > 100 µM (active) | CC50 [22]: > 40 µM (active)
